One experiment addresses T1, α1β2 GABAARs (Rattus norvegicus, UniProt P62813+P63138).
T1 construct: expressed in transfected cells; host or cells: HEK293
Kind of experiment: [3H]glutamate binding assay, plasma membranes of HEK293 cells overexpressing α1 and β2. Conditions: 40 nM [3H]glutamate + 0.4 mM non-radiolabeled competitor. How it is done:
For membrane preparation, transfected or non-transfected HEK293 cells were washed twice with cold PBS and harvested by scraping into 5 ml cold PBS. Cells were then centrifuged at 1200 × g for 12 min at 4 °C and medium was removed. The washing procedure was repeated twice. Then the cell pellet was re-suspended into 1 ml of 50 mM Tris-HCl buffer (pH 7.4, with protease inhibitor) and homogenized using syringes with 18-G, 21-G and 23-G needles.
To separate the membrane, the homogenate were centrifuged for 20 min at 20,000 × g at 4 °C. Then the pellet was re-suspended into 1 ml of 50 mM Tris-HCl buffer, pH 7.4 and centrifuged again. After repeating this procedure for one more time, the pellet was re-suspended into 1 ml of 50 mM Tris-HCl buffer, pH 7.4 and the protein concentration was measured.
To conduct the binding assay, 100 µg membrane enriched preparation was incubated with 40 nM [3H]-Glutamate in a total volume of 0.5 ml in 50 mM Tris-HCl buffer, pH 7.4 for 1 h on ice. […] Then the reaction was terminated by quickly filtering the solution on Whatman filter paper and washing by 3.5 ml Tris-HCl buffer. Radioactivity was measured in a Beckman liquid scintillation counter.

In the next experiment the target is T2, α1 β2 ^I180A γ2 GABAAR (Rattus norvegicus, UniProt P62813+P63138, I205A).
T2 construct: expressed in transfected cells; host or cells: HEK293
Kind of experiment: Patch clamp, HEK293, mutant GABAAR. The experiment is classed as cell-based. Particulars: GABA-evoked currents. How it is done:
(§1) To positively confirm one of these two putative binding sites involved in glutamate binding, we performed a systemic mutational analysis of critical amino acids around these two sites followed by electrophysiological characterizations of their impacts on glutamate potentiation in HEK293 cells expressing wild-type or mutated α1β2γ2 GABAARs (Table 1).
(§2) HEK293 cells were cultured in DMEM (Invitrogen) supplemented with 10% fetal bovine serum. Cells were grown to 40–60% confluence and transiently transfected using Lipofectamine 2000 (Invitrogen) with 1:0.5–1 plasmid/lipid ratio. Cells were transfected with a pBK-CMV expression vector containing a rat recombinant GABAAR α, β or γ subunits. Co-transections were done with a plasmid ratio of 1:1 αβ and 2:2:1 for αβγ subunit combinations, respectively. pcDNA3.1-GFP was also co-transfected along with GABAAR subunits as a transfected marker in order to facilitate the visualization of the transfected cells during electrophysiological experiments. Cells were re-plated on glass coverslips after 15–20 h transfection and were cultured for an additional 15–24 h before whole-cell patch-clamp recordings.
(§3) The site-directed mutagenesis of α, β or γ subunits were performed by using the QuikChange method (Stratagene). […] Wild-type or mutant subunits were transfected in HEK293 cells and subjected to electrophysiology examinations.
(§4) Whole-cell patch-clamp recordings were performed under voltage-clamp mode using an Axopatch 200B or 1D patch-clamp amplifier (Molecular Devices) on HEK293 cells and cultured neurons. Whole-cell currents were recorded at a holding potential of −60 mV, and signals were filtered at 2 kHz, digitized at 10 kHz (Digidata 1322 A). Recording pipettes (3–5 MΩ) were filled with the intracellular solution that contained (mM): CsCl 140, HEPES 10, Mg-ATP 4, QX-314 5, pH 7.20; osmolarity, 290–295 mOsm. BAPTA (10 mM) was added in the intracellular solution. The coverslips were continuously superfused with the extracellular solution containing (mM): NaCl 140, KCl 5.4, HEPES 10, MgCl2 1.0, CaCl2 1.3, glucose 20, pH 7.4; osmolarity, 305–315 mOsm. […] Dose–response curves were created by fitting data to Hill equation: I = Imax/[1 + (EC50/[A])^n], where I is the current, Imax is the maximum current, [A] is a given concentration of agonist, n is the Hill coefficient. […] All experiments were performed at room temperature.

The next experiment deals with T3, α1 β2^G126A γ2 GABAAR (Rattus norvegicus, UniProt P62813+P63138, G151A).
T3 construct: expressed in transfected cells; host or cells: HEK293
Kind of experiment: Patch clamp, HEK293, mutant GABAAR. The format is cell-based. How it is done:
as §1, §2, §3, §4

For the next experiment, the target named is T4, α1 β2^Q63A γ2 GABAAR (Rattus norvegicus, UniProt P62813+P63138, Q88A).
T4 construct: expressed in transfected cells; host or cells: HEK293
The experiment is described as follows: Patch clamp, HEK293, mutant GABAAR. The format is cell-based. On the procedure:
as §1, §2, §3, §4

In a further experiment the target is T5, α1 β2^V177A γ2 GABAAR (Rattus norvegicus, UniProt P62813+P63138, V202A).
T5 construct: expressed in transfected cells; host or cells: HEK293
Kind of experiment: Patch clamp, HEK293, mutant GABAAR. The experiment is classed as cell-based. How it is done: as §1, §2, §3, §4

Another experiment addresses T6, α1 β2^Y61A γ2 GABAAR (Rattus norvegicus, UniProt P62813+P63138, Y86A).
T6 construct: expressed in transfected cells; host or cells: HEK293
Kind of experiment: Patch clamp, HEK293, mutant GABAAR. The experiment is classed as cell-based. On the procedure: as §1, §2, §3, §4

The target in a further experiment is T7, α1^E208A β2 γ2 GABAAR (Rattus norvegicus, UniProt P62813+P63138, E235A).
T7 construct: expressed in transfected cells; host or cells: HEK293
The experiment is described as follows: Patch clamp, HEK293, mutant GABAAR. The format is cell-based. Conditions: GABA-evoked currents. How it is done: as §1, §2, §3, §4

In the next experiment the target is T8, α1^F99A β2 γ2 GABAAR (Rattus norvegicus, UniProt P62813+P63138, F126A).
T8 construct: expressed in transfected cells; host or cells: HEK293
Kind of experiment: Patch clamp, HEK293, mutant GABAAR. The experiment is classed as cell-based. Particulars: GABA-evoked currents. On the procedure: as §1, §2, §3, §4

The next experiment deals with T9, α1^H101A β2 γ2 GABAAR (Rattus norvegicus, UniProt P62813+P63138, H128A).
T9 construct: expressed in transfected cells; host or cells: HEK293
The experiment is described as follows: Patch clamp, HEK293, mutant GABAAR. The format is cell-based. Conditions: GABA-evoked currents. On the procedure:
as §1, §2, §3, §4

The next experiment has as its target T10, α1^S158A β2 γ2 GABAAR (Rattus norvegicus, UniProt P62813+P63138, S185A).
T10 construct: expressed in transfected cells; host or cells: HEK293
Kind of experiment: Patch clamp, HEK293, mutant GABAAR. The format is cell-based. Conditions: GABA-evoked currents. How it is done: as §1, §2, §3, §4

In another experiment the target is T11, α1^S205A β2 γ2 GABAAR (Rattus norvegicus, UniProt P62813+P63138, S232A).
T11 construct: expressed in transfected cells; host or cells: HEK293
The experiment is described as follows: Patch clamp, HEK293, mutant GABAAR. The experiment is classed as cell-based. Particulars: GABA-evoked currents. On the procedure:
as §1, §2, §3, §4

A further experiment deals with T12, α1^T206A β2 γ2 GABAAR (Rattus norvegicus, UniProt P62813+P63138, T233A).
T12 construct: expressed in transfected cells; host or cells: HEK293
The experiment is described as follows: Patch clamp, HEK293, mutant GABAAR. The experiment is classed as cell-based. Conditions: GABA-evoked currents. On the procedure:
as §1, §2, §3, §4

Another experiment addresses T13, α1^Y159A β2 γ2 GABAAR (Rattus norvegicus, UniProt P62813+P63138, Y186A).
T13 construct: expressed in transfected cells; host or cells: HEK293
The experiment is described as follows: Patch clamp, HEK293, mutant GABAAR. The experiment is classed as cell-based. Conditions: GABA-evoked currents. On the procedure: as §1, §2, §3, §4

The next experiment deals with T14, α1 β2^E181G γ2 GABAAR (Rattus norvegicus, UniProt P62813+P63138, E206G).
T14 construct: expressed in transfected cells; host or cells: HEK293
Kind of experiment: Patch clamp, HEK293, mutant GABAAR. The experiment is classed as cell-based.
Excerpt: (§5) The subunits are color-coded individually. The boxed regions are further enlarged in the middle panels, highlighting the predicted glutamate binding pocket in the α+ and β− interface, just below the loop C. […] Relative potentiation was obtained by normalizing potentiation observed in the mutated receptor to that in the respective wild-type receptor.
as §1, §2, §3, §4

Another experiment has as its target T15, α1^K104D β2 γ2 GABAAR (Rattus norvegicus, UniProt P62813+P63138, K131D).
T15 construct: expressed in transfected cells; host or cells: HEK293
Kind of experiment: Patch clamp, HEK293, mutant GABAAR. The format is cell-based.
Excerpt: as §5, §1, §2, §3, §4

The target in a further experiment is T16, α1^K155D β2 γ2 GABAAR (Rattus norvegicus, UniProt P62813+P63138, K182D).
T16 construct: expressed in transfected cells; host or cells: HEK293
Kind of experiment: Patch clamp, HEK293, mutant GABAAR. The experiment is classed as cell-based. Particulars: GABA-evoked currents.
Excerpt: as §5, §1, §2, §3, §4

We go through 1 compound from article PMC9527238, “Glutamate and GABAA receptor crosstalk mediates homeostatic regulation of neuronal excitation in the mammalian brain” (Signal Transduction and Targeted Therapy, 2022).

Take `NCCCC(=O)O` [GABA, gamma-Aminobutyric acid]: the “[3H]glutamate binding activity in presence of competitor” value at α1β2 GABAARs is on record as 939.2 ± 88.8 CPM. In addition, the “Imax (nA)” value is given as 1.7 ± 0.4 nA on α1 β2 ^I180A γ2 GABAAR; 1.3 ± 0.4 nA on α1 β2^G126A γ2 GABAAR (GABA-evoked currents); 1.0 ± 0.5 nA on α1 β2^Q63A γ2 GABAAR (GABA-evoked currents); 1.7 ± 0.9 nA at α1 β2^V177A γ2 GABAAR (GABA-evoked currents); 1.0 ± 0.5 nA on α1 β2^Y61A γ2 GABAAR (GABA-evoked currents); 1.8 ± 0.8 nA at α1^E208A β2 γ2 GABAAR. For the same compound, the “Imax (nA)” value on α1^F99A β2 γ2 GABAAR stood at 1.0 ± 0.7 nA; at α1^H101A β2 γ2 GABAAR, 0.9 ± 0.5 nA; on α1^S158A β2 γ2 GABAAR, 1.3 ± 0.5 nA; on α1^S205A β2 γ2 GABAAR it was 2.3 ± 1.1 nA; on α1^T206A β2 γ2 GABAAR, 1.9 ± 0.8 nA; at α1^Y159A β2 γ2 GABAAR it was 1.1 ± 0.5 nA. Also, the figures for the “Imax (nA)” value on α1 β2^E181G γ2 GABAAR (GABA-evoked currents), at α1^K104D β2 γ2 GABAAR (GABA-evoked currents) and at α1^K155D β2 γ2 GABAAR were 1.1 ± 0.2 nA, 2.3 ± 0.7 nA and 1.3 ± 0.5 nA, respectively. The “Hill Slope” value was found to be 2.28 ± 0.74 at α1 β2^G126A γ2 GABAAR (GABA dose-response); 2.09 ± 0.93 on α1 β2^Q63A γ2 GABAAR (GABA dose-response); 1.12 ± 0.37 on α1 β2^V177A γ2 GABAAR (GABA dose-response); 2.91 ± 1.30 on α1 β2^Y61A γ2 GABAAR (GABA dose-response); 1.59 ± 0.14 at α1 β2^E181G γ2 GABAAR (GABA dose-response); 1.70 ± 0.17 at α1^K104D β2 γ2 GABAAR (GABA dose-response).
